The test system of data set [1] is DU-4475. The experiment in a line: Antiproliferative activity against human DU4475 cells after 72 hrs by MTT assay. As to conditions: DU-4475, 72 h. It counts as functional, cell-based. (Formazan colour is commonly taken as a measure of viable cells.)
A further data set concerns T47D. Put plainly: Antiproliferative activity against human T47D cells after 72 hrs by MTT assay. Format: functional, cell-based.
A further data set relates to SK-BR-3. The experiment in a line: Antiproliferative activity against human SK-BR-3 cells after 72 hrs by MTT assay. Format: functional, cell-based. Particulars: SK-BR-3, 72 h.
Data set [2] has as its system MDA-MB-468. The experiment in a line: Antiproliferative activity against human MDA-MB-468 cells after 72 hrs by MTT assay. It counts as functional, cell-based. Particulars: MDA-MB-468, 72 h.
The subject of the next data set is NCI/ADR-RES. The experiment in a line: Antiproliferative activity against human MCF7/ADR cells after 72 hrs by MTT assay. It counts as functional, cell-based.
Another data set has as its system MDA-MB-453. Put plainly: Antiproliferative activity against human MDA-MB-453 cells after 72 hrs by MTT assay. Format: functional, cell-based. As to conditions: MDA-MB-453, 72 h.
Data set [3] deals with MDA-MB-231. Put plainly: Antiproliferative activity against human MDA-MB-231 cells after 72 hrs by MTT assay. It counts as functional, cell-based. Particulars: MDA-MB-231, 72 h.
Data set [4] concerns HCC1806. The experiment in a line: Antiproliferative activity against human HCC1806 cells after 72 hrs by MTT assay. It counts as functional, cell-based. Particulars: HCC1806, 72 h.
For another data set, the system named is HCC1937. The experiment in a line: Antiproliferative activity against human HCC1937 cells after 72 hrs by MTT assay. Format: functional, cell-based. Particulars: HCC1937, 72 h.
Data set [5] deals with DU-4475. Put plainly: Potency index, ratio of oridonin IC50 to compound IC50 for antiproliferative activity against human DU4475 cells after 72 hrs by MTT assay. It counts as functional.
For data set [6], the system named is HCC1806. Put plainly: Potency index, ratio of oridonin IC50 to compound IC50 for antiproliferative activity against human HCC1806 cells after 72 hrs by MTT assay. Format: functional.
The test system of data set [7] is MDA-MB-231. The experiment in a line: Potency index, ratio of oridonin IC50 to compound IC50 for antiproliferative activity against human MDA-MB-231 cells after 72 hrs by MTT assay. Format: functional.
Data set [8] concerns MDA-MB-468. The experiment in a line: Potency index, ratio of oridonin IC50 to compound IC50 for antiproliferative activity against human MDA-MB-468 cells after 72 hrs by MTT assay. It counts as functional.
Data set [9] is described as follows: Toxicity in ICR mouse assessed as reduction in body weight at 6 mg/kg, iv administered once per 2 days for 23 consecutive days and measured every 2 days. Format: organism-based. Particulars: in vivo, 48 h.
In data set [10] the test system is HCC1806. Put plainly: Antitumor activity against human HCC1806 cells in ICR mouse assessed as increase in apoptosis in tumor at 6 mg/kg, iv administered once per 2 days for 23 consecutive days by Ki67 staining-based immunohistochemical analysis. Format: functional, organism-based.
The subject of data set [11] is HCC1806. Put plainly: Antitumor activity against human HCC1806 cells in ICR mouse assessed as tumor shrinkage at 6 mg/kg, iv administered once per 2 days for 23 consecutive days by Ki67 staining-based immunohistochemical analysis. Format: functional, organism-based.
The test system of data set [12] is HCC1806. Put plainly: Antitumor activity against human HCC1806 cells in ICR mouse assessed as increase in apoptosis in tumor at 6 mg/kg, iv administered once per 2 days for 23 consecutive days by hematoxylin and eosin staining based histopathological assay. It counts as functional, organism-based.
Data set [13] has as its system HCC1806. The experiment in a line: Antitumor activity against human HCC1806 cells harboring luciferase gene xenografted in ICR mouse assessed as shrunken tumor tissue at 6 mg/kg, iv administered once per 2 days for 21 consecutive days and measured once every week. Format: functional, organism-based.
In data set [14] the test system is HCC1806. The experiment in a line: Antitumor activity against human HCC1806 cells in ICR mouse assessed as tumor shrinkage at 6 mg/kg, iv administered once per 2 days for 23 consecutive days by hematoxylin and eosin staining based histopathological assay. It counts as functional, organism-based.
Data set [15] has as its system HCC1806. Put plainly: Antitumor activity against human HCC1806 cells in ICR mouse assessed as reduction in tumor weight at 6 mg/kg, iv administered once per 2 days for 23 consecutive days and measured every 2 days relative to control. More on the design: scale not given: the % may be the effect or the level left. Format: functional.
In data set [16] the test system is HCC1806. Put plainly: Antitumor activity against human HCC1806 cells in ICR mouse assessed as tumor shrinkage at 6 mg/kg, iv administered once per 2 days for 23 consecutive days by TUNEL based immunohistochemical analysis. Format: functional, organism-based.
Data set [17] has as its system HCC1806. Put plainly: Antitumor activity against human HCC1806 cells in ICR mouse assessed as increase in apoptosis in tumor at 6 mg/kg, iv administered once per 2 days for 23 consecutive days by TUNEL based immunohistochemical analysis. Format: functional, organism-based.

Calls of active or inactive are those of the source. No cut-off for these calls is given here.

Take `C=C1C(=O)[C@]23[C@H](O)[C@H]1CC[C@H]2[C@@]12CO[C@]3(O)[C@@H](O)[C@@H]1C(C)(C)CC[C@@H]2O` [ORIDONIN]: the IC50 (in general, the midpoint of a concentration-inhibition curve) in the data set on DU-4475 [1] was determined as 17000 nM; in the data set with T47D, 7.56 µM; with SK-BR-3, 8.49 µM; in the data set with MDA-MB-468 [2], 17300 nM; in the data set with NCI/ADR-RES it was 26.2 µM; with MDA-MB-453 it was 6.67 µM. Also, the values for the IC50 with MDA-MB-231 [3], with HCC1806 [4] and in the data set on HCC1937 were 17900 nM, 21700 nM and 8.27 µM, respectively.
Turning to `C=C1C(=O)[C@]23[C@H](O)[C@H]1CC[C@H]2[C@]12CCCC(C)(C)[C@H]1[C@H](O)[C@@]3(O)OC2`, the IC50 is 2360 nM in the data set on DU-4475 [1], 2240 nM with MDA-MB-468 [2], 2960 nM with MDA-MB-231 [3] and 2390 nM with HCC1806 [4]. Also, the “Ratio IC50” value with DU-4475 [5], in the data set on HCC1806 [6], in the data set with MDA-MB-231 [7] and with MDA-MB-468 [8] was 6 - 12 each time.
On to `CC(=O)O[C@H]1C(=O)[C@@]2(C)[C@H]([C@H](OC(=O)c3ccccc3)[C@]3(O)C[C@H](OC(=O)[C@H](O)[C@@H](NC(=O)c4ccccc4)c4ccccc4)C(C)=C1C3(C)C)[C@]1(OC(C)=O)CO[C@@H]1C[C@@H]2O` [PACLITAXEL], for which the Activity entry in data set [9] is given as “Toxic”; with HCC1806 [15], 66%. The result in the data set on HCC1806 [10], in the data set with HCC1806 [11], with HCC1806 [12], in the data set with HCC1806 [13], in the data set with HCC1806 [14] and with HCC1806 [16] was Active. In addition, in the data set on HCC1806 [17], the result was Active.
With `C=C1C(=O)[C@@]23C(=O)[C@@H]4OC[C@]5(C=CCC(C)(C)[C@@H]45)[C@@H]2CC[C@@H]1[C@H]3OC(=O)c1ccc(F)cc1`, the IC50 amounted to 2050 nM with DU-4475 [1], 2050 nM with MDA-MB-468 [2], 1410 nM with MDA-MB-231 [3] and 1650 nM in the data set on HCC1806 [4].
Turning to `C=C1C(=O)[C@@]23C(=O)[C@@H]4OC[C@]5(C=CCC(C)(C)[C@@H]45)[C@@H]2CC[C@@H]1[C@H]3OC(=O)c1cccnc1`, the IC50 is 2620 nM in the data set with DU-4475 [1], 1370 nM in the data set on MDA-MB-468 [2], 1070 nM in the data set with MDA-MB-231 [3] and 2730 nM in the data set with HCC1806 [4].
Consider `C=C1C(=O)[C@@]23C(=O)[C@@H]4OC[C@]5(C=CCC(C)(C)[C@@H]45)[C@@H]2CC[C@@H]1[C@H]3OC(=O)c1ccccc1`, for which the IC50 with DU-4475 [1] was 8500 nM; with MDA-MB-468 [2], 8960 nM; with MDA-MB-231 [3], 7450 nM; in the data set with HCC1806 [4], 7120 nM.
Taken in the same sequence, the figures for `C=C1C(=O)[C@@]23C(=O)[C@@H]4OC[C@]5(C=CCC(C)(C)[C@@H]45)[C@@H]2CC[C@@H]1[C@H]3OC(=O)c1ccncc1` were 1420 nM, 1320 nM, 1080 nM and 1390 nM.
In the case of `C=C1C(=O)[C@@]23C(=O)[C@@H]4OC[C@]5(C=CCC(C)(C)[C@@H]45)[C@@H]2CC[C@@H]1[C@H]3OC(=O)/C=C/c1ccc2ccccc2c1`, the IC50 was 2000 nM with DU-4475 [1], 2250 nM with MDA-MB-468 [2], 1470 nM in the data set with MDA-MB-231 [3] and 1780 nM in the data set with HCC1806 [4].
Taken in the same sequence, the figures for `C=C1C(=O)[C@@]23C(=O)[C@@H]4OC[C@]5(C=CCC(C)(C)[C@@H]45)[C@@H]2CC[C@@H]1[C@H]3OC(=O)/C=C/c1ccc(F)cc1` were 1750 nM, 1600 nM, 1180 nM and 1630 nM.
Take `C=C1C(=O)[C@]23[C@H](O)[C@H]1CC[C@H]2[C@]12C=CCC(C)(C)[C@H]1[C@H](O)[C@@]3(O)OC2`: the IC50 was found to be 1610 nM with DU-4475 [1], 1440 nM in the data set with MDA-MB-468 [2], 2330 nM in the data set on MDA-MB-231 [3] and 2350 nM in the data set on HCC1806 [4]. The “Ratio IC50” value in the data set with DU-4475 [5], in the data set on HCC1806 [6], with MDA-MB-231 [7] and in the data set with MDA-MB-468 [8] was 6 - 12 each time.
For the compound `C=C1C(=O)[C@@]23C(=O)[C@@H]4OC[C@]5(C=CCC(C)(C)[C@@H]45)[C@@H]2CC[C@@H]1[C@H]3O`, the IC50 was found to be 920 nM in the data set with DU-4475 [1], 990 nM in the data set with MDA-MB-468 [2], 1300 nM with MDA-MB-231 [3] and 970 nM in the data set with HCC1806 [4].
For the compound `C=C1C(=O)[C@@]23C(=O)[C@@H]4OC[C@]5(C=CCC(C)(C)[C@@H]45)[C@@H]2CC[C@@H]1[C@H]3OC(=O)/C=C/c1cccnc1`, the IC50 in the data set on DU-4475 [1] turned out to be 340 nM; with MDA-MB-468 [2] it was 530 nM; in the data set with MDA-MB-231 [3] it was 680 nM; in the data set with HCC1806 [4], 310 nM.

(Values after ChEMBL document CHEMBL4627407, “Identification of a Potent Oridonin Analogue for Treatment of Triple-Negative Breast Cancer” (J Med Chem, 2020).)
